{"source": "paper PMC8429728", "about": "“TNK1 is a ubiquitin-binding and 14-3-3-regulated kinase that can be targeted to block tumor growth” (Nature Communications, 2021)", "assay_in_all_cases": "biochemical", "set-up_in_all_cases": "Reaction Biology 371-kinase panel at Km ATP, per cent enzyme activity relative to DMSO, single dose in duplicate", "key": {"ACK1": {"biological_target": "T1, ACK1 (Homo sapiens, UniProt Q07912)", "T1 construct": "gene TNK2", "T1 sequence (Q07912 whole entry)": "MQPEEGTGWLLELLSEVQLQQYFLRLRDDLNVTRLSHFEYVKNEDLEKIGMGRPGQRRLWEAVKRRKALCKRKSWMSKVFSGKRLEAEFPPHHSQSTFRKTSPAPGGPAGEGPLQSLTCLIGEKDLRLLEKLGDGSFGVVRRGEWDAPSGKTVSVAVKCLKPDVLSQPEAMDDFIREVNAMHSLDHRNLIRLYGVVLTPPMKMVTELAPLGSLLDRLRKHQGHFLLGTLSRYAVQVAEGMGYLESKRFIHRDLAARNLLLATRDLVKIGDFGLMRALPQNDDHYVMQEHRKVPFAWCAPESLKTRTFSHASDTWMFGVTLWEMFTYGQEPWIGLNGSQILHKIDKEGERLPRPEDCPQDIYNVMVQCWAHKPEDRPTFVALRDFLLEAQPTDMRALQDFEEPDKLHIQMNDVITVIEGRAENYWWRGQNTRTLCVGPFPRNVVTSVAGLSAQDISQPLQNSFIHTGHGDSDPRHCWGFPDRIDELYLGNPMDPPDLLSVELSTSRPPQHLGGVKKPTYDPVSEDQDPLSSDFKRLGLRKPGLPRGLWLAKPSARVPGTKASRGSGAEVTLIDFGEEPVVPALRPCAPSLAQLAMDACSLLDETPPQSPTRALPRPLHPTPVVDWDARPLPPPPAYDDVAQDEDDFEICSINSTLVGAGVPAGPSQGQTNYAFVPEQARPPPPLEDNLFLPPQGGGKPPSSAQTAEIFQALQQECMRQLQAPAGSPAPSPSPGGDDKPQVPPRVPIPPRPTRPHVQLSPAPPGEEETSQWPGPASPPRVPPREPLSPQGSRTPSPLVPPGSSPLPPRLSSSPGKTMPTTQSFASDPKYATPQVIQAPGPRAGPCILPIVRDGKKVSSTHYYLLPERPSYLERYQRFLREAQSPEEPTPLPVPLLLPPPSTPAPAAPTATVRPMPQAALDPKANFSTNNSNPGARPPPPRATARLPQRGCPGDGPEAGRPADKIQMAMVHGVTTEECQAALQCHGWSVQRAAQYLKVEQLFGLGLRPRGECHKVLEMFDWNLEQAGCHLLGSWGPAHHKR", "settings": "duplicate measurements, Km ATP", "method": "(§1) To assess kinase selectivity, we screened TP-5801 (300 nM) against a panel of 371 kinases in vitro. […] In addition to TNK1, only 7 other kinases were inhibited by more than 90% (Supplementary Fig. 8 and Supplementary Data 2). […] The resulting % Enzyme activity (relative to DMSO controls) were plotted in GraphPad and IC50 values were determined by sigmoidal dose-response (variable slope) curve fits, with a bottom constraint of 0."}, "ALK2/ACVR1": {"biological_target": "ALK2/ACVR1 (Homo sapiens, UniProt Q04771)", "settings": "duplicate measurements, Km ATP; read-out: % Enzyme Activity (relative to DMSO controls) / TP-0005801 (0.3µM) / Data 1", "method": "as §1"}, "CAMK2a": {"biological_target": "CAMK2a (Homo sapiens, UniProt Q9UQM7)", "sequence (Q9UQM7 whole entry)": "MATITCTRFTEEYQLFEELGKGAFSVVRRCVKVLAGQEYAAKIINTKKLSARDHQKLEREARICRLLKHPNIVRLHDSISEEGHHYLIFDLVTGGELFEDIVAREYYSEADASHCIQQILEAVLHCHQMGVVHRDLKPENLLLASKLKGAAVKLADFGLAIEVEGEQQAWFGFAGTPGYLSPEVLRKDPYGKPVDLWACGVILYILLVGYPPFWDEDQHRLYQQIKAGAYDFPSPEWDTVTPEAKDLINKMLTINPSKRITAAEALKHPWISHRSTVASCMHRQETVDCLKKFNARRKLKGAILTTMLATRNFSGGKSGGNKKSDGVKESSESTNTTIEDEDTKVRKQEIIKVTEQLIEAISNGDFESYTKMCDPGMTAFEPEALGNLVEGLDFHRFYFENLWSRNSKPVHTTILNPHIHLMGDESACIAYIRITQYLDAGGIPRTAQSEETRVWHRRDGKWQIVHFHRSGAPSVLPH", "settings": "duplicate measurements, Km ATP", "method": "as §1"}, "CDK2/cyclin A1": {"biological_target": "CDK2/cyclin A1 (Homo sapiens, UniProt P24941)", "settings": "duplicate measurements, Km ATP", "method": "as §1"}, "CDK5/p35": {"biological_target": "T2, CDK5/p35 (Homo sapiens, UniProt Q00535)", "T2 construct": "p35", "settings": "duplicate measurements, Km ATP", "method": "as §1"}, "COT1/MAP3K8": {"biological_target": "COT1/MAP3K8 (Homo sapiens, UniProt P41279)", "sequence (P41279 whole entry)": "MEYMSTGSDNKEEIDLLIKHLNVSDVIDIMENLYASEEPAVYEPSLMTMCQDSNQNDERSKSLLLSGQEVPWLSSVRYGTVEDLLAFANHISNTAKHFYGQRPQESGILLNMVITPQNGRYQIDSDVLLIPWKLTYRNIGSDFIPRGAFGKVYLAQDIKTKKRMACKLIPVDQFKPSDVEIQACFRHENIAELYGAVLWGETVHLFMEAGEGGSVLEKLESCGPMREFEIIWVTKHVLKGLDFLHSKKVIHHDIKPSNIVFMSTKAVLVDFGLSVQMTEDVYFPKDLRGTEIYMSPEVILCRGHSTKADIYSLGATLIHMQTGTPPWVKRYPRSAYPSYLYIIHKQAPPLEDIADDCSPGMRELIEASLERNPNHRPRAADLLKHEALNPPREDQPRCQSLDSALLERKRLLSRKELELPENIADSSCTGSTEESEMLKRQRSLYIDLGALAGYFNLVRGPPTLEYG", "settings": "duplicate measurements, Km ATP", "method": "as §1"}, "MKK4": {"biological_target": "T3, MKK4 (Homo sapiens, UniProt P45985)", "T3 construct": "gene MAP2K4", "T3 sequence (P45985 whole entry)": "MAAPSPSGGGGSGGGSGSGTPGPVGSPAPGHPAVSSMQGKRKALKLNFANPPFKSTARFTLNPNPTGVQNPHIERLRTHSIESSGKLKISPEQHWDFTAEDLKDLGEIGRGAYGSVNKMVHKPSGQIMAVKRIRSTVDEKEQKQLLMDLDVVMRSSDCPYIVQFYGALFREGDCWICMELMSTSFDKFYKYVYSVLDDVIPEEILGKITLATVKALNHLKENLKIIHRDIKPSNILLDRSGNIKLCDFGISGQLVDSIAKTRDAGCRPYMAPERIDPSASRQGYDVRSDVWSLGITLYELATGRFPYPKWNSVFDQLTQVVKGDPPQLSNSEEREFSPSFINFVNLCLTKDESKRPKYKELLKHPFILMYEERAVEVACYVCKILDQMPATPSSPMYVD", "settings": "duplicate measurements, Km ATP", "method": "as §1"}, "MRCKa/CDC42BPA": {"biological_target": "MRCKa/CDC42BPA (Homo sapiens, UniProt Q5VT25)", "settings": "duplicate measurements, Km ATP", "method": "as §1"}, "OSR1/OXSR1": {"biological_target": "OSR1/OXSR1 (Homo sapiens, UniProt O95747)", "sequence (O95747 whole entry)": "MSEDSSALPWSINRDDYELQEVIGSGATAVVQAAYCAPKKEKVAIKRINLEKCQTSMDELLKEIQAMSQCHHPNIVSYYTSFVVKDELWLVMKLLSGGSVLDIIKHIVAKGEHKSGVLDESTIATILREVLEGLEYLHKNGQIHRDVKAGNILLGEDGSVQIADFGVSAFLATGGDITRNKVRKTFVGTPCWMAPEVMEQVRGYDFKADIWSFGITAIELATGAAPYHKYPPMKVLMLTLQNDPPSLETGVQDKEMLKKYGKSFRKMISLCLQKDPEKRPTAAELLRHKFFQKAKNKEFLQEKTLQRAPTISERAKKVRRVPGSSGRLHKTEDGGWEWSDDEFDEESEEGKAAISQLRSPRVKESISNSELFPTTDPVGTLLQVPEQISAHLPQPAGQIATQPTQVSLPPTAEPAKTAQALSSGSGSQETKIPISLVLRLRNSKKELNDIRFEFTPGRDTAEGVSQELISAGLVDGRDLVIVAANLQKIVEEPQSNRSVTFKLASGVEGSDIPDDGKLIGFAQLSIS", "settings": "duplicate measurements, Km ATP", "method": "as §1"}, "P38a/MAPK14": {"biological_target": "P38a/MAPK14 (Homo sapiens, UniProt Q16539)", "sequence (Q16539 whole entry)": "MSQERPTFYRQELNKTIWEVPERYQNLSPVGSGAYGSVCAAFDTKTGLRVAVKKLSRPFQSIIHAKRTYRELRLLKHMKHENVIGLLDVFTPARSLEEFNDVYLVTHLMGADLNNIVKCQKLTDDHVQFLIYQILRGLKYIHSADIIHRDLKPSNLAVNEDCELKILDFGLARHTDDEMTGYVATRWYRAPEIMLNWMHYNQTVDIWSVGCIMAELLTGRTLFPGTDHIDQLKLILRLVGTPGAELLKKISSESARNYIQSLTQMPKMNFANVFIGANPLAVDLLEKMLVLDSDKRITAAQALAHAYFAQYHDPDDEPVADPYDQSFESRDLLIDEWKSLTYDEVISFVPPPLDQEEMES", "settings": "duplicate measurements, Km ATP", "method": "as §1"}, "PBK/TOPK": {"biological_target": "PBK/TOPK (Homo sapiens, UniProt Q96KB5)", "sequence (Q96KB5 whole entry)": "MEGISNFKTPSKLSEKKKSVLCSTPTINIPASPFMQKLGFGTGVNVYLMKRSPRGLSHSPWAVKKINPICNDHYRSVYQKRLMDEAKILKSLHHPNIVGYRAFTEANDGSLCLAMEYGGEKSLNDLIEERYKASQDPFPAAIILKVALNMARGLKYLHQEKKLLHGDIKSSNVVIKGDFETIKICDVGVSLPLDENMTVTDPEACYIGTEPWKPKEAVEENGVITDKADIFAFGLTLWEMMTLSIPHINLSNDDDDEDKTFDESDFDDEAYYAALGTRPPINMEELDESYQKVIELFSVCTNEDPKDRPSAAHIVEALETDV", "settings": "duplicate measurements, Km ATP", "method": "as §1"}, "PKMYT1": {"biological_target": "T4, PKMYT1 (Homo sapiens, UniProt Q99640)", "T4 sequence (Q99640 1-499)": "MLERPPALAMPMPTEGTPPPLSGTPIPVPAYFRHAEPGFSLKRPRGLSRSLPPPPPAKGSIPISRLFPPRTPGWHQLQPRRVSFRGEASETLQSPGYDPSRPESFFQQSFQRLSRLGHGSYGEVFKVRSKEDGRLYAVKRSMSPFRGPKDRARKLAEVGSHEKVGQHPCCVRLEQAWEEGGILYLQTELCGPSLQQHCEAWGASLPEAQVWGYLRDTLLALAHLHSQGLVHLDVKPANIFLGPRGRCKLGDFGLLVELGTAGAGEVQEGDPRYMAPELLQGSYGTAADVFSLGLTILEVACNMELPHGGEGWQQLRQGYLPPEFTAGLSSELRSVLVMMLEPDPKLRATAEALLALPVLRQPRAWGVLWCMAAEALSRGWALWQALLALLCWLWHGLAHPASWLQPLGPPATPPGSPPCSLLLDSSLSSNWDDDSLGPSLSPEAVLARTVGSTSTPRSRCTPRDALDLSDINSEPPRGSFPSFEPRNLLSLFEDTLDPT", "settings": "duplicate measurements, Km ATP", "method": "as §1"}, "PKN2/PRK2": {"biological_target": "PKN2/PRK2 (Homo sapiens, UniProt Q16513)", "settings": "duplicate measurements, Km ATP", "method": "as §1"}, "PLK3": {"biological_target": "PLK3 (Homo sapiens, UniProt Q9H4B4)", "sequence (Q9H4B4 whole entry)": "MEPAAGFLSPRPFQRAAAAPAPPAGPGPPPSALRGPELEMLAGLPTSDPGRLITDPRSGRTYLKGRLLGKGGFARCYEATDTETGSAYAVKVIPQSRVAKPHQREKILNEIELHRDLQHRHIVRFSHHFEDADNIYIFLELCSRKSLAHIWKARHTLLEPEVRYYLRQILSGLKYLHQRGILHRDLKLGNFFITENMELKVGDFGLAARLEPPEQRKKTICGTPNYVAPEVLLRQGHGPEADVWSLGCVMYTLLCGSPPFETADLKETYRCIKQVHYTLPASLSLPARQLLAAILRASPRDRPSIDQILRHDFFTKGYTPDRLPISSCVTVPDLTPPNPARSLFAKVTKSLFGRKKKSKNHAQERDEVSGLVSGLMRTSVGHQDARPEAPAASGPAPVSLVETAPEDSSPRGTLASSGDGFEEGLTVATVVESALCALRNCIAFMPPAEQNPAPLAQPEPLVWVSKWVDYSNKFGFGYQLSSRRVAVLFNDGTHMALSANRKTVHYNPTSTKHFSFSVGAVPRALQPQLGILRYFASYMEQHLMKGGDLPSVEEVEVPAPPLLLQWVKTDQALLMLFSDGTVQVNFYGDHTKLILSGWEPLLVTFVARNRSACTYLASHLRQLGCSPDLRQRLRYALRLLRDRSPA", "settings": "duplicate measurements, Km ATP", "method": "as §1"}, "TGFBR2": {"biological_target": "TGFBR2 (Homo sapiens, UniProt P37173)", "settings": "duplicate measurements, Km ATP", "method": "as §1"}, "TLK2": {"biological_target": "TLK2 (Homo sapiens, UniProt Q86UE8)", "sequence (Q86UE8 whole entry)": "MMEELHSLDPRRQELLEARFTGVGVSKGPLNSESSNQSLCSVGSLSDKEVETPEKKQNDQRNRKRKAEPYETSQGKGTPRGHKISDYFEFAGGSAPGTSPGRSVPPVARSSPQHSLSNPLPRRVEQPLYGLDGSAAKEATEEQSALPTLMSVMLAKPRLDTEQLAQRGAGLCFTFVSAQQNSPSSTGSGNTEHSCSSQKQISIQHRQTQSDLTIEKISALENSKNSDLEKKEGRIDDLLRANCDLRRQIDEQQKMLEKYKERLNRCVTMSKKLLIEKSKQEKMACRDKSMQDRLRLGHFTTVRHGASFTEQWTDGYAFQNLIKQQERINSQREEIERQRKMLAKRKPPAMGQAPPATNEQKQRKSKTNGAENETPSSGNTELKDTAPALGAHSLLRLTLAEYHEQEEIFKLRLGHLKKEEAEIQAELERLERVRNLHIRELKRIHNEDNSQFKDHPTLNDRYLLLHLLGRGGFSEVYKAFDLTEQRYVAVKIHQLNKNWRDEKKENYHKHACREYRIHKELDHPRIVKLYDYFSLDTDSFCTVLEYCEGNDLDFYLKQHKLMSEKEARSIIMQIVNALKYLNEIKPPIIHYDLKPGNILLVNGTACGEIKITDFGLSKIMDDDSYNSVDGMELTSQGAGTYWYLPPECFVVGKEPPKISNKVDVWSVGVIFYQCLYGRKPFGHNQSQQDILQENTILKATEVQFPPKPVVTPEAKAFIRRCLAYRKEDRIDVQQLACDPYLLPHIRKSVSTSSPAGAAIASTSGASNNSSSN", "settings": "duplicate measurements, Km ATP", "method": "as §1"}, "[1]": {"settings": "read-out: % Enzyme Activity (relative to DMSO controls) / TP-0005801 (0.3µM) / Data 1"}, "[2]": {"settings": "read-out: % Enzyme Activity (relative to DMSO controls) / TP-0005801 (0.3µM) / Data 2"}}, "note": "Like-named read-outs stand apart in the source and are kept apart here.", "data": [{"smiles": "COc1cc(N2CCN(C)CC2)c(C)cc1Nc1ncc(Br)c(Nc2cccnc2N(C)C)n1", "note": "[TP-5801]", "values": [{"measurement": "remaining activity at 0.3 µM", "setting": "ACK1; [1]", "result": 1.69, "unit": "%"}, {"measurement": "remaining activity at 0.3 µM", "setting": "ACK1; [2]", "result": 1.45, "unit": "%"}, {"measurement": "remaining activity at 0.3 µM", "setting": "ALK2/ACVR1", "result": 90.6, "unit": "%"}, {"measurement": "remaining activity at 0.3 µM", "setting": "CAMK2a; [1]", "result": 8.85, "unit": "%"}, {"measurement": "remaining activity at 0.3 µM", "setting": "CAMK2a; [2]", "result": 8.25, "unit": "%"}, {"measurement": "remaining activity at 0.3 µM", "setting": "CDK2/cyclin A1; [1]", "result": 67.5, "unit": "%"}, {"measurement": "remaining activity at 0.3 µM", "setting": "CDK2/cyclin A1; [2]", "result": 63.7, "unit": "%"}, {"measurement": "remaining activity at 0.3 µM", "setting": "CDK5/p35; [1]", "result": 99.5, "unit": "%"}, {"measurement": "remaining activity at 0.3 µM", "setting": "CDK5/p35; [2]", "result": 99.1, "unit": "%"}, {"measurement": "remaining activity at 0.3 µM", "setting": "COT1/MAP3K8; [1]", "result": 100, "unit": "%"}, {"measurement": "remaining activity at 0.3 µM", "setting": "COT1/MAP3K8; [2]", "result": 97.5, "unit": "%"}, {"measurement": "remaining activity at 0.3 µM", "setting": "MKK4; [1]", "result": 78.8, "unit": "%"}, {"measurement": "remaining activity at 0.3 µM", "setting": "MKK4; [2]", "result": 76, "unit": "%"}, {"measurement": "remaining activity at 0.3 µM", "setting": "MRCKa/CDC42BPA; [1]", "result": 104, "unit": "%"}, {"measurement": "remaining activity at 0.3 µM", "setting": "MRCKa/CDC42BPA; [2]", "result": 100, "unit": "%"}, {"measurement": "remaining activity at 0.3 µM", "setting": "OSR1/OXSR1; [1]", "result": 110, "unit": "%"}, {"measurement": "remaining activity at 0.3 µM", "setting": "OSR1/OXSR1; [2]", "result": 104, "unit": "%"}, {"measurement": "remaining activity at 0.3 µM", "setting": "P38a/MAPK14; [1]", "result": 89, "unit": "%"}, {"measurement": "remaining activity at 0.3 µM", "setting": "P38a/MAPK14; [2]", "result": 88.1, "unit": "%"}, {"measurement": "remaining activity at 0.3 µM", "setting": "PBK/TOPK; [1]", "result": 107, "unit": "%"}, {"measurement": "remaining activity at 0.3 µM", "setting": "PBK/TOPK; [2]", "result": 98.9, "unit": "%"}, {"measurement": "remaining activity at 0.3 µM", "setting": "PKMYT1; [1]", "result": 62.9, "unit": "%"}, {"measurement": "remaining activity at 0.3 µM", "setting": "PKMYT1; [2]", "result": 62.8, "unit": "%"}, {"measurement": "remaining activity at 0.3 µM", "setting": "PKN2/PRK2; [1]", "result": 97.2, "unit": "%"}, {"measurement": "remaining activity at 0.3 µM", "setting": "PKN2/PRK2; [2]", "result": 95.9, "unit": "%"}, {"measurement": "remaining activity at 0.3 µM", "setting": "PLK3; [1]", "result": 109, "unit": "%"}, {"measurement": "remaining activity at 0.3 µM", "setting": "PLK3; [2]", "result": 102, "unit": "%"}, {"measurement": "remaining activity at 0.3 µM", "setting": "TGFBR2; [1]", "result": 99.3, "unit": "%"}, {"measurement": "remaining activity at 0.3 µM", "setting": "TGFBR2; [2]", "result": 97.8, "unit": "%"}, {"measurement": "remaining activity at 0.3 µM", "setting": "TLK2; [1]", "result": 101, "unit": "%"}, {"measurement": "remaining activity at 0.3 µM", "setting": "TLK2; [2]", "result": 100, "unit": "%"}]}]}
